# In PMC9795070, “Customized chitooligosaccharide production—controlling their length via engineering of rhizobial chitin synthases and the choice of expression system” (Frontiers in Bioengineering and Biotechnology, 2022):
# Biological target: T1, NodC_GRH2 (Rhizobium sp. GRH2, UniProt A0A0N7ARR3)
# T1 construct: gene nodC; wild-type nodC in shuttle vector pEKEx3, expressed in E. coli BL21 (DE3) and C. glutamicum DSM20300; not purified, membrane-embedded
# T1 sequence (A0A0N7ARR3 1-443): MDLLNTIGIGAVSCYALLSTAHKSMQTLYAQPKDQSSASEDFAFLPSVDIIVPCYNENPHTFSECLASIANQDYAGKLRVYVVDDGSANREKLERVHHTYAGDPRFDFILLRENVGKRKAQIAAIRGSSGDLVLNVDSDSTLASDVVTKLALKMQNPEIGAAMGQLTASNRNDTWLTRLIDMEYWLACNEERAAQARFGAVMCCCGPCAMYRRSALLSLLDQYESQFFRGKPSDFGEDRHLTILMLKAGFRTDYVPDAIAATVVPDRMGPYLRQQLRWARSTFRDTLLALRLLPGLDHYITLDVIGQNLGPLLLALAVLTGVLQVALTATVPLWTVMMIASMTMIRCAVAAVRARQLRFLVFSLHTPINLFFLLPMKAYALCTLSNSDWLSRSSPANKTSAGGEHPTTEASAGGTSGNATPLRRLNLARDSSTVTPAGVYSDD
# Test: whole-cell production, HILIC-ESI-MS of lysed culture
# Assay type: cell-based
# Settings: 0.1 mM IPTG, donor UDP-GlcNAc from the host
SMILES,"whole-cell production, HILIC-ESI-MS of lysed culture (E. coli BL21 (DE3), 30 °C)","whole-cell production, HILIC-ESI-MS of lysed culture (C. glutamicum DSM20300, 30 °C)"
"CC(=O)N[C@H]1[C@H](O[C@H]2[C@H](O)[C@@H](NC(C)=O)[C@H](O[C@H]3[C@H](O)[C@@H](NC(C)=O)C(O)O[C@@H]3CO)O[C@@H]2CO)O[C@H](CO)[C@@H](O[C@@H]2O[C@H](CO)[C@@H](O[C@@H]3O[C@H](CO)[C@@H](O)[C@H](O)[C@H]3NC(C)=O)[C@H](O)[C@H]2NC(C)=O)[C@@H]1O (some centres unmarked) [A5, pentamer]",the main product for wildtype NodC_GRH2 throughout the whole cultivation is A5,–
"CC(=O)N[C@H]1[C@H](O[C@H]2[C@H](O)[C@@H](NC(C)=O)[C@H](O[C@H]3[C@H](O)[C@@H](NC(C)=O)C(O)O[C@@H]3CO)O[C@@H]2CO)O[C@H](CO)[C@@H](O[C@@H]2O[C@H](CO)[C@@H](O[C@@H]3O[C@H](CO)[C@@H](O[C@@H]4O[C@H](CO)[C@@H](O)[C@H](O)[C@H]4NC(C)=O)[C@H](O)[C@H]3NC(C)=O)[C@H](O)[C@H]2NC(C)=O)[C@@H]1O (some centres unmarked) [A6, hexamer]",–,C. glutamicum expressing the same wildtype enzyme produces predominantly A6
